According to patent US20190100534A1, “Cephem Compounds with Latent Reactive Groups” (Gladius Pharmaceuticals, Inc., priority 2017, published 2019):

Assays:
Type in all cases: cell-based
[1] = system: Isogenic E. coli J58 strain carrying CTX-M-15; assay: MIC determination, isogenic E. coli strains; settings: Escherichia coli, 18 h, read-out: Mimimum Inhibitory Concentrations, CTX-M-15
Summary of the method: (§1)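 Isogenic E. coli J53 carrying plasmid-encoded CTX-M-14 or CTX-M-15 (ampicillin-selected), standardized to 0.08-0.1 OD600, incubated overnight (18 h, 37° C.) in CAMH broth plus 20 μM apo-transferrin over 2-fold compound dilutions starting at 64 μg/mL. Lowest concentration with no visible growth recorded as MIC.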

[2] = system: Isogenic E. coli J58 strain carrying CTX-M-14; assay: MIC determination, isogenic E. coli strains; settings: Escherichia coli, 18 h, read-out: Mimimum Inhibitory Concentrations, CTX-M-14
Summary of the method: as §1

[3] = system: Pseudomonas aeruginosa PA (RR-1); assay: MIC determination; settings: Pseudomonas aeruginosa; PA (RR-1); CAMH broth, 20 μM Apo-Transferrin, 37° C., 18 hours; read-out: Minimum Inhibitory Concentrations, PA (RR-1)
Protocol: (§2) Sterile technique was used throughout these experiments. Suspensions of organisms were removed from storage (−80° C.) and partially thawed. Partially thawed organisms (1 μL) were inoculated into 3 mL sterile LB Broth in a sterile culture tube and capped, then cultured at 37° C. with shaking for 4-5 hours until the optical density at 600 nm (OD600) was greater than 0.1 on a single beam spectrophotometer.
(§3) The concentration of organisms was adjusted to 0.08-0.1 OD600 (0.5 McFarland units) by dilution with sterile cation-adjusted Meuller-Hinton (CAMH) broth. The suspensions were used within 30 minutes of preparation.
(§4) A stock solution was made of each test compound by measuring 6.4 mg of the compound on an analytical balance and dissolving it in DMSO (1 mL) to get a transparent solution. The solutions were stored at −20° C. and thawed prior to use.
(§5) Sterile CAMH broth (200 μL) containing 20 μM Apo-Transferrin was pipetted into the first row of 8 columns of a sterile, round-bottomed, transparent, 96-well microplate using an 8-channel pipette equipped with sterile tips. One hundred μL was pipetted into the wells of the remaining 11 rows.
(§6) With an 8-channel pipette equipped with sterile tips, 100 μL of the first row solution was transferred to the second row and mixed. The process was repeated for the second to third rows and continued through row 11. One hundred μL from row 11 was removed and discarded so that all 12 rows contained 100 μL. Row 12 contained no compound and rows 1-11 contained 64, 32, 16, 8, 4, 2, 1, 0.5, 0.25, 0.125, […] of a given compound.
(§7) Inoculant suspensions (0.5 μL) were added to the 12 wells of each column. The plates were then covered and incubated at 37° C. overnight for 18 hours.
(§8) For each organism the MIC was determined by identifying the transparent well with the lowest test compound concentration.

[4] = system: Pseudomonas aeruginosa PA (URMC-3); assay: MIC determination; settings: Pseudomonas aeruginosa; PA (URMC-3); CAMH broth, 20 μM Apo-Transferrin, 37° C., 18 hours; read-out: Minimum Inhibitory Concentrations, PA (URMC-3)
Protocol: as §2, §3, §4, §5, §6, §7, §8

[5] = system: Pseudomonas aeruginosa PA-RR-(G8062859); assay: MIC determination; settings: Pseudomonas aeruginosa; PA-RR-(G8062859); CAMH broth, 20 μM Apo-Transferrin, 37° C., 18 hours; read-out: Minimum Inhibitory Concentrations, PA-RR-(G8062859)
Protocol: as §2, §3, §4, §5, §6, §7, §8

[6] = system: Pseudomonas aeruginosa PA-RR-(G7294437); assay: MIC determination; settings: Pseudomonas aeruginosa; PA-RR-(G7294437); CAMH broth, 20 μM Apo-Transferrin, 37° C., 18 hours; read-out: Minimum Inhibitory Concentrations, PA-RR-(G7294437)
Protocol: as §2, §3, §4, §5, §6, §7, §8

[7] = system: Pseudomonas aeruginosa PA-RR-(G7304100); assay: MIC determination; settings: Pseudomonas aeruginosa; PA-RR-(G7304100); CAMH broth, 20 μM Apo-Transferrin, 37° C., 18 hours; read-out: Minimum Inhibitory Concentrations, PA-RR-(G7304100)
Protocol: as §2, §3, §4, §5, §6, §7, §8

[8] = system: Pseudomonas aeruginosa (PA); assay: MIC determination; settings: Pseudomonas aeruginosa; PA; CAMH broth, 20 μM Apo-Transferrin, 37° C., 18 hours; read-out: Minimum Inhibitory Concentrations, PA
Protocol: as §2, §3, §4, §5, §6, §7, §8

[9] = system: Isogenic E. coli J58 strain carrying VIM-2; assay: MIC determination, isogenic E. coli strains; settings: for MIC: Escherichia coli, 18 h, read-out: Mimimum Inhibitory Concentrations, VIM-2; for MICs for an E. coli strain carrying the gene for carbapenemase VIM-1, in words: review of Tables 4-1 and 4-2
Summary of the method: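 E. coli J53 transformed with pBC-SK(+) plasmid carrying synthesized VIM-2 gene, grown in LB to OD600 >0.1, adjusted to 0.08–0.1 OD600 in CAMH broth.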

[10] = system: E. coli J53 Alone; assay: MIC determination, isogenic E. coli strains; settings: for MIC: Escherichia coli, J53ALONE, 18 h, read-out: Mimimum Inhibitory Concentrations, J53 Alone; for Mimimum Inhibitory Concentrations, J53 Alone: Table 4-2, CAMH broth, 20 μM Apo-Transferrin, 37° C., 18 hours
Summary of the method: (§9)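 Broth microdilution in cation-adjusted Mueller-Hinton broth with 20 μM apo-transferrin, 2-fold compound series from 64 μg/mL. E. coli J53, alone or transformed with a pBC-SK(+) plasmid carrying the beta-lactamase gene (e.g. DHA-1), inoculated from 0.5 McFarland suspension; 18 h at 37° C; MIC = lowest concentration with clear well.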

[11] = system: Isogenic E. coli J58 strain carrying NDM-1; assay: MIC determination, isogenic E. coli strains; settings: Escherichia coli, 18 h, read-out: Mimimum Inhibitory Concentrations, NDM-1
Summary of the method: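 E. coli J53 transformed with a pBC-SK(+) plasmid encoding NDM-1 was adjusted to 0.08-0.1 OD600. It was grown 18 h at 37° C in CAMH broth containing 20 μM apo-transferrin with twofold compound dilutions from 64 μg/mL. MIC was taken as the lowest concentration giving a transparent well.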

[12] = system: Isogenic E. coli J58 strain carrying SHV-1; assay: MIC determination, isogenic E. coli strains; settings: Escherichia coli, 18 h, read-out: Mimimum Inhibitory Concentrations, SHV-1
Summary of the method: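 MIC is the lowest compound concentration leaving a transparent well after overnight (18 h) incubation at 37 °C. The test strain was E. coli J53 expressing plasmid-borne SHV-1 beta-lactamase from pBC-SK(+), adjusted to 0.5 McFarland. Compounds were twofold serially diluted, starting at 64 μg/mL, in CAMH broth supplemented with 20 μM apo-transferrin.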

[13] = system: Isogenic E. coli J58 strain carrying DHA-1; assay: MIC determination, isogenic E. coli strains; settings: Escherichia coli, 18 h, read-out: Mimimum Inhibitory Concentrations, DHA-1
Summary of the method: as §9

[14] = system: Isogenic E. coli J58 strain carrying IMP-1; assay: MIC determination, isogenic E. coli strains
Summary of the method: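 Broth microdilution in cation-adjusted Mueller-Hinton broth with 20 μM apo-transferrin, compound serially diluted two-fold from 64 μg/mL, against E. coli J53 carrying plasmid-borne IMP-1. Inoculum adjusted to 0.5 McFarland; plates incubated 18 h at 37° C. MIC taken as lowest concentration giving a clear well.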

[15] = system: Isogenic E. coli J58 strain carrying TEM-26; assay: MIC determination, isogenic E. coli strains; settings: Escherichia coli, 18 h, read-out: Mimimum Inhibitory Concentrations, TEM-26
Summary of the method: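 Broth microdilution in cation-adjusted Mueller-Hinton broth with 20 μM apo-transferrin, compound […] in twofold steps, inoculum from 0.5 McFarland suspension. E. coli J53 transformed with pBC-SK(+) encoding TEM-26; 18 h at 37° C, MIC as lowest concentration giving a clear well.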

[16] = system: Isogenic E. coli J58 strain carrying KPC-2; assay: MIC determination, isogenic E. coli strains; settings: Escherichia coli, 18 h, read-out: Mimimum Inhibitory Concentrations, KPC-2
Summary of the method: (§10)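 Broth microdilution in cation-adjusted Mueller-Hinton broth with 20 μM apo-transferrin, compound at 64 down to […], inoculum set to 0.5 McFarland. E. coli J53 transformed with pBC-SK(+) carrying the synthetic beta-lactamase gene was used. Plates were incubated 18 h at 37 °C; MIC is the lowest concentration giving a clear well.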

[17] = system: Isogenic E. coli J58 strain carrying KPC-3; assay: MIC determination, isogenic E. coli strains; settings: Escherichia coli, 18 h, read-out: Mimimum Inhibitory Concentrations, KPC-3
Summary of the method: as §10

Row | Compound | MIC [1] [µg/mL] | MIC [2] [µg/mL] | MIC [3] [µg/mL] | MIC [4] [µg/mL] | MIC [5] [µg/mL] | MIC [6] [µg/mL] | MIC [7] [µg/mL] | MIC [8] [µg/mL] | MIC [9] [µg/mL] | MIC [10] [µg/mL] | Mimimum Inhibitory Concentrations, J53 Alone [10] [microgram/mL] | MIC [11] [µg/mL] | MIC [12] [µg/mL] | MICs for an E. coli strain carrying the gene for carbapenemase VIM-1, in words [9] | MIC [13] [µg/mL] | MICs for an E. coli strain carrying the gene for carbapenemase IMP-1, in words ([14]; review of Tables 4-1 and 4-2) | MIC [15] [µg/mL] | MIC ([14]; Escherichia coli, 18 h, read-out: Mimimum Inhibitory Concentrations, IMP-1) [µg/mL] | MIC [16] [µg/mL] | MIC [17] [µg/mL]
1 | CC(C)(O/N=C(\C(=O)N[C@@H]1C(=O)N2C(C(=O)O)=C(C=Cc3ccc(C[n+]4ccc(-c5ccc(O)c(O)c5)cc4)cc3)CS[C@H]12)c1csc(N)n1)C(=O)O (mixture of isomers) [Compound 412, 1-(4-((E/Z)-2-((6R,7R)-7-((Z)-2-(2-aminothiazol-4-yl)-2-(((2-carboxypropan-2-yl)oxy)imino)acetamido)-2-carboxy-8-oxo-5-thia-1-azabicyclo[4.2.0]oct-2-en-3-yl)vinyl)benzyl)-4-(3,4-dihydroxyphenyl)pyridin-1-ium] | 0.13 | 0.5 | 4 | ≤ 0.06 | 1 | 1 | ≤ 0.06 | 2 | 0.5 | ≤ 0.06 | ≤0.06 | > 64 |  |  |  |  |  |  |  | 
2 | CC(C)(O/N=C(\C(=O)N[C@@H]1C(=O)N2C(C(=O)O)=C(C=Cc3ccc(C[N+]4(C)Cc5c(Cl)c(O)c(O)c(Cl)c5C4)cc3)CS[C@H]12)c1csc(N)n1)C(=O)O (mixture of isomers) [Compound 431, 2-(4-((E/Z)-2-((6R,7R)-7-((Z)-2-(2-aminothiazol-4-yl)-2-(((2-carboxypropan-2-yl)oxy)imino)acetamido)-2-carboxy-8-oxo-5-thia-1-azabicyclo[4.2.0]oct-2-en-3-yl)vinyl)benzyl)-4,7-dichloro-5,6-dihydroxy-2-methylisoindolin-2-ium] | 0.13 | 0.13 | 0.13 | 1 | 0.5 | ≤ 0.06 | ≤ 0.06 | 0.25 | ≤ 0.06 | ≤ 0.06 | ≤0.06 | > 64 | 0.13 | low microgram/mL MICs | 1 |  |  |  |  | 
3 | CC(C)(O/N=C(\C(=O)N[C@@H]1C(=O)N2C(C(=O)O)=C(C=Cc3ccc(C[N+]4(C)Cc5cc(O)c(O)c(Cl)c5C4)cc3)CS[C@H]12)c1csc(N)n1)C(=O)O (mixture of isomers) [Compound 432, 2-(4-((E/Z)-2-((6R,7R)-7-((Z)-2-(2-aminothiazol-4-yl)-2-(((2-carboxypropan-2-yl)oxy)imino)acetamido)-2-carboxy-8-oxo-5-thia-1-azabicyclo[4.2.0]oct-2-en-3-yl)vinyl)benzyl)-4-chloro-5,6-dihydroxy-2-methylisoindolin-2-ium] | ≤ 0.06 | ≤ 0.06 | 1 | 1 | 0.5 | ≤ 0.06 | ≤ 0.06 | 0.25 | ≤ 0.06 | ≤ 0.06 | ≤0.06 | > 64 |  | low microgram/mL MICs | ≤ 0.06 | low microgram/mL MICs |  |  |  | 
4 | C#CC[N+]1(Cc2ccc(C=CC3=C(C(=O)O)N4C(=O)[C@@H](NC(=O)/C(=N\OC(C)(C)C(=O)O)c5csc(N)n5)[C@H]4SC3)cc2)CCc2cc(O)c(O)cc2C1 (mixture of isomers) [Compound 446, 2-(4-((E/Z)-2-((6R,7R)-7-((Z)-2-(2-aminothiazol-4-yl)-2-(((2-carboxypropan-2-yl)oxy)imino)acetamido)-2-carboxy-8-oxo-5-thia-1-azabicyclo[4.2.0]oct-2-en-3-yl)vinyl)benzyl)-6,7-dihydroxy-2-(prop-2-yn-1-yl)-1,2,3,4-tetrahydroisoquinolin-2-ium] | 0.25 | 0.25 |  |  |  |  |  |  | 0.25 | 0.13 | 0.13 | > 64 |  |  | 0.25 |  | 0.25 | 1 | 2 | 1
